Test results: patent US20220033448A1, “METHODS FOR AGGREGATION OF PROTEINS” (priority 2011, published 2022)
Converted amounts (≈) assume the structure as drawn. Non-standard residues stand in square brackets, D forms with d. Residues, ends and D or L forms follow the SMILES beside them. No end group written: not given here. PEG3 = NCCOCCOCCOCCC(=O)O; AEEA = NCCOCCOCC(=O)O

Experiments:
[1] = tested on: Salmonella typhi ATCC14028; format: cell-based
Klebsiella pneumoniae = format: cell-based

Method for B. cereus: (§1) Bacteria were grown in a shaking incubator at 37° C. and 160rpm in 50 ml BHI , using individual colonies retrieved from a fresh overnight TSA-sheep blood plate. The cultures were grown to a density of approximately 1×10^8cells/ml and then diluted to 5×10^5 cells/ml in CAMHB (Mc Farland 0.5). Each well contained 100p.I (50p.I of peptide containing MHB plus 50 μl inoculum). The final cell density was 1×10^5 to 5×10^5/ml. After addition of the cell suspension, plates were incubated at 37° C. for 18 to 24 hours. The optical density at 590 nm (OD590) of each well was measured after 5 seconds of shaking the plate using Perkin Elmer spectrophotometer (1420 Multilabel Counter Vicotr 3). […] Each well, where no growth was observed, was also plated on TSA-sheep blood agar plates, incubated at 37° C. overnight and visually inspected.
(§2) A microbroth dilution method was used with twofold serial dilutions in CAMHB (according to EMEA guidelines) was used for screening of peptide activity, with concentrations ranging from 0.3 μg/mIto 200 μg/ml.
Method for E. coli: as §1, §2
Method for E. faecalis: as §1, §2
Method for Nocardia asteroides: as §1, §2
Method for S. aureus: as §1, §2
Method for S. epidermidis: as §1, §2
Method for S. hominis: as §1, §2

Row | Molecule | Minimum inhibitory concentrations MIC90 (B. cereus) [µg/mL] | Minimum inhibitory concentrations MIC90 (E. coli) [µg/mL] | Minimum inhibitory concentrations MIC90 (S. epidermidis) [µg/mL] | Minimum inhibitory concentrations MIC90 [1] [µg/mL] | Minimum inhibitory concentrations MIC90 (S. hominis) [µg/mL] | Minimum inhibitory concentrations MIC90 (Nocardia asteroides) [µg/mL] | Minimum inhibitory concentrations MIC90 (E. faecalis) [µg/mL] | Minimum inhibitory concentrations MIC90 (Klebsiella pneumoniae) [µg/mL] | MIC value (S. epidermidis) [µg/mL] | MIC value (S. aureus) [µg/mL] | other results
1 | CC[C@@H](C)[C@@H](NC(=O)[C@H](N)CCCNC(=N)N)C(=O)N[C@H](CC(C)C)C(=O)N[C@H](CC(C)C)C(=O)NCC(=O)N[C@H](CC(C)C)C(=O)N[C@@H](C(=O)N[C@H](CCCNC(=N)N)C(=O)N[C@H](CCCNC(=N)N)C(=O)NCC(=O)N[C@H](CO)C(=O)N[C@H](CCCNC(=N)N)C(=O)N[C@@H](C(=O)N[C@H](CC(C)C)C(=O)N[C@H](CC(C)C)C(=O)NCC(=O)N[C@H](CC(C)C)C(=O)N[C@@H](C(=O)N[C@H](CCCNC(=N)N)C(=O)N[C@H](CCCNC(=N)N)C(=O)O)[C@H](C)CC)[C@H](C)CC)[C@H](C)CC [DAA] (H-[dR][dI][dL][dL]G[dL][dI][dR][dR]G[dS][dR][dI][dL][dL]G[dL][dI][dR][dR]-OH; N-terminus and C-terminus assumed) | 6 (≈ 2.56 µM) | 25 (≈ 10.7 µM) | 1.5 (≈ 0.64 µM) | 100 (≈ 42.6 µM) | 1.5 (≈ 0.64 µM) | >200 | 6 (≈ 2.56 µM) | 25 (≈ 10.7 µM) |  |  | Minimum inhibitory concentrations MIC90 (Corynebacterium): >200 µg/mL
2 | CC[C@H](C)[C@H](NC(=O)[C@H](CC(C)C)NC(=O)CNC(=O)[C@H](CC(C)C)NC(=O)[C@H](CC(C)C)NC(=O)[C@@H](NC(=O)[C@H](CCCNC(=N)N)NC(=O)[C@H](CO)NC(=O)CNC(=O)[C@H](CCCNC(=N)N)NC(=O)[C@H](CCCNC(=N)N)NC(=O)[C@@H](NC(=O)[C@H](CC(C)C)NC(=O)CNC(=O)[C@H](CC(C)C)NC(=O)[C@H](CC(C)C)NC(=O)[C@@H](NC(=O)[C@H](CCCNC(=N)N)NC(=O)COCCOCCN)[C@@H](C)CC)[C@@H](C)CC)[C@@H](C)CC)C(=O)N[C@@H](CCCNC(=N)N)C(=O)N[C@@H](CCCNC(=N)N)C(=O)O [P2153] (H-[AEEA]RILLGLIRRGSRILLGLIRR-OH) | 6 (≈ 2.41 µM) | 25 (≈ 10 µM) | 12.5 (≈ 5.02 µM) | >200 | 3 (≈ 1.2 µM) | 6 (≈ 2.41 µM) | 25 (≈ 10 µM) | 50 (≈ 20.1 µM) |  |  | 
3 | CC[C@H](C)[C@H](NC(=O)[C@H](CC(C)C)NC(=O)CNC(=O)[C@H](CC(C)C)NC(=O)[C@H](CC(C)C)NC(=O)[C@@H](NC(=O)[C@H](CCCNC(=N)N)NC(=O)[C@H](CO)NC(=O)CNC(=O)[C@H](CCCNC(=N)N)NC(=O)[C@H](CCCNC(=N)N)NC(=O)[C@@H](NC(=O)[C@H](CC(C)C)NC(=O)CNC(=O)[C@H](CC(C)C)NC(=O)[C@H](CC(C)C)NC(=O)[C@@H](NC(=O)[C@H](CCCNC(=N)N)NC(=O)CCOCCOCCOCCN)[C@@H](C)CC)[C@@H](C)CC)[C@@H](C)CC)C(=O)N[C@@H](CCCNC(=N)N)C(=O)N[C@@H](CCCNC(=N)N)C(=O)O [P2154] (H-[PEG3]RILLGLIRRGSRILLGLIRR-OH) | 12.5 (≈ 4.91 µM) | 50 (≈ 19.6 µM) | 12.5 (≈ 4.91 µM) | >200 | 3 (≈ 1.18 µM) | 6 (≈ 2.35 µM) | 12.5 (≈ 4.91 µM) | 100 (≈ 39.2 µM) |  |  | 
4 | CC[C@H](C)[C@H](NC(=O)[C@H](CC(C)C)NC(=O)CNC(=O)[C@H](CC(C)C)NC(=O)[C@H](CC(C)C)NC(=O)[C@@H](NC(=O)[C@H](CCCNC(=N)N)NC(=O)COCCOCCNC(=O)[C@H](CCCNC(=N)N)NC(=O)[C@H](CCCNC(=N)N)NC(=O)[C@@H](NC(=O)[C@H](CC(C)C)NC(=O)CNC(=O)[C@H](CC(C)C)NC(=O)[C@H](CC(C)C)NC(=O)[C@@H](NC(=O)[C@@H](N)CCCNC(=N)N)[C@@H](C)CC)[C@@H](C)CC)[C@@H](C)CC)C(=O)N[C@@H](CCCNC(=N)N)C(=O)N[C@@H](CCCNC(=N)N)C(N)=O [P2175/P1] (H-RILLGLIRR[AEEA]RILLGLIRR-NH2) | 12.5 (≈ 5.33 µM) | 25 (≈ 10.7 µM) | 12.5 (≈ 5.33 µM) | 50 (≈ 21.3 µM) | 3 (≈ 1.28 µM) | 3 (≈ 1.28 µM) | 12.5 (≈ 5.33 µM) | 50 (≈ 21.3 µM) |  |  | Minimum inhibitory concentrations MIC90 (Corynebacterium): >200 µg/mL
5 | CC[C@H](C)[C@H](NC(=O)[C@H](CC(C)C)NC(=O)CNC(=O)[C@H](CC(C)C)NC(=O)[C@H](CC(C)C)NC(=O)[C@@H](NC(=O)[C@H](CCCNC(=N)N)NC(=O)COCCOCCNC(=O)[C@H](CCCNC(=N)N)NC(=O)[C@H](CCCNC(=N)N)NC(=O)[C@@H](NC(=O)[C@H](CC(C)C)NC(=O)CNC(=O)[C@H](CC(C)C)NC(=O)[C@H](CC(C)C)NC(=O)[C@@H](NC(=O)[C@@H](N)CCCNC(=N)N)[C@@H](C)CC)[C@@H](C)CC)[C@@H](C)CC)C(=O)N[C@@H](CCCNC(=N)N)C(=O)N[C@@H](CCCNC(=N)N)C(N)=O [P2175/P2] (H-RILLGLIRR[AEEA]RILLGLIRR-NH2) | 12.5 (≈ 5.33 µM) | 50 (≈ 21.3 µM) | 6 (≈ 2.56 µM) | 25 (≈ 10.7 µM) | 1.5 (≈ 0.64 µM) | 6 (≈ 2.56 µM) | 6 (≈ 2.56 µM) | 100 (≈ 42.6 µM) |  |  | Minimum inhibitory concentrations MIC90 (Corynebacterium): >200 µg/mL
6 | H-RILLGLIRRGSRILLGLIRR-OH [P2151] | 12.5 | 25 | 12.5 | 100 | 3 | 12.5 | 25 | 25 |  |  | 
7 | RFFIGLSRRGSRIQAYLYRR [Hit50A] |  |  |  |  |  |  |  |  |  |  | MIC values against B.cereus ATCC (B. cereus): 50 µg/mL; MIC values against MRSA 326 (S. aureus): 50 µg/mL; MIC values against S.aureus ATCC 29213 (S. aureus): 100 µg/mL
8 | RRIIGIIARPPRVLVTLLRR [mtop_22] |  |  |  |  |  |  |  |  | 50 | <200 | 
9 | RRIILFILRPPRLILFLGRR [mtop_1] |  |  |  |  |  |  |  |  | 50 | 200 | 
10 | RRILGLIARPPRIAFVILRR [mtop_18] |  |  |  |  |  |  |  |  | 50 | <200 | 
11 | RRILLGLIRPPRTIIGLVRR [mtop_11] |  |  |  |  |  |  |  |  | 12.5 | >200 | 
12 | RRILLLIARPPRILLGAIRR [mtop_12] |  |  |  |  |  |  |  |  | 12.5 | >200 | 
13 | RRLLGLIIRPPRAIALTLRR [mtop_17] |  |  |  |  |  |  |  |  | 100 | 50 | 
14 | RRWVSMLLRRGSRWVSMLLRR [Hit14] |  |  |  |  |  |  |  |  |  |  | MIC values against B.cereus ATCC (B. cereus): 100 µg/mL; MIC values against S.epidermidis ATCC 12228 (S. epidermidis): 50 µg/mL
15 | RWVSMLLRRGSRVGYVIARR [Hit37] |  |  |  |  |  |  |  |  |  |  | MIC values against B.cereus ATCC (B. cereus): >100 µg/mL; MIC values against MRSA 326 (S. aureus): 100 µg/mL; MIC values against S.aureus ATCC 29213 (S. aureus): 100 µg/mL
